Source: patent US20100029612A1, “2-Aminoethyl Substituted Pyrimidin-2-Ones Cyclopropanes, Pyrazolines, Pyrimidines and Benzothiazepines and Their Uses as Urotensin II and Somatostatin 5 Receptor Ligands” (priority 2003, published 2010)

Columns and labels:
UII receptor = molecular target: T1, UII receptor (Homo sapiens, UniProt Q9UKP6); assay: R-SAT functional mammalian cell-based agonist assay, UII receptor; details: for selectivity UII versus SST5 receptor (in words): UII and SST5 receptors; for UII Eff.: agonist efficacy; for UII Eff. / UII pEC50 / EC50: transfected NIH3T3 cells; for UII pEC50 / EC50: agonist; for agonist activity at the UII receptor (in words): potency similar to AC-7954; for EC50: read-out: UII pEC50 (converted)
T1 construct: expressed in transfected cells; host or cells: NIH3T3 cells, receptor plasmid in PSI Mammalian Expression Vector (PROMEGA)
T1 sequence (Q9UKP6 1-389): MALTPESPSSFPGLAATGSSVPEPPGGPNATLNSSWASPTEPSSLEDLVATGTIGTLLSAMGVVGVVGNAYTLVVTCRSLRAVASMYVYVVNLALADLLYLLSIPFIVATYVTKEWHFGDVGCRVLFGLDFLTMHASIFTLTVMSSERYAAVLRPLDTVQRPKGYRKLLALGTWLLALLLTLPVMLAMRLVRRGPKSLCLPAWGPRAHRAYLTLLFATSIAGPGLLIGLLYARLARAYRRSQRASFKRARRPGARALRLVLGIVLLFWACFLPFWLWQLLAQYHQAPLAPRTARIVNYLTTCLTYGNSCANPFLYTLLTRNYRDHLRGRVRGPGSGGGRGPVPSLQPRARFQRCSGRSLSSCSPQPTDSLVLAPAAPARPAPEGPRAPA
Procedure: (§1) The compounds I to VI were tested as agonist at the UII and SST5 receptors in the functional mammalian cell-based assay R-SAT, described in U.S. Pat. Nos. 5,707,798, 5,912,132, and 5,955,281.
(§2) R-SAT assays were performed using NIH3T3 cells grown in tissue culture treated rollerbottles to 40-50% confluence. Cells were transfected for 12-16 hours with plasmid DNAs using SUPERFECT (QIAGEN) as per manufacture's protocols. R-SAT's were generally performed with 10 μg/rollerbottle of receptor and 50 μg/rollerbottle of beta-galactosidase plasmid DNA. All receptor and G-protein constructs used were in the PSI Mammalian Expression Vector (PROMEGA). The transfected cells were then trypsinized and frozen in DMEM containing 10% DMSO. Frozen cells were later thawed, plated at 10,000-40,000 cells per well of a 96½ area plate that contained drug. Cells were then grown in a humidified atmosphere with 5% ambient CO2 for five days. Media was then removed from the plates and marker gene activity was measured by the addition of the beta-galactosidase substrate ONPG (in PBS with 5% NP-40). The resulting colorimetric reaction was measured in a spectrophotometric plate reader (Titertek Inc.) at […].

[1] = Stability to oxidation by air during storage; assay type: physicochemical
Procedure: A pyrazoline scaffold was prepared by the condensation of compound of formula VI of Example 1 with methylhydrazine in the presence of L-InCl3. […] The stereochemistry of the major isomer was confirmed as having an anti-configuration by the strong interaction between […] in the diethylamino chain and by the absence of any NOESY correlation between H4 (3.56 ppm) and H5 (3.98 ppm). […]

SST5 receptor = molecular target: T2, SST5 receptor (Homo sapiens, UniProt P35346); assay: R-SAT functional mammalian cell-based agonist assay, SST5 receptor; details: transfected NIH3T3 cells; for SST5 Eff.: agonist efficacy; for EC50: agonist, read-out: SST5 pEC50 (converted)
T2 construct: expressed in transfected cells; host or cells: NIH3T3 cells, receptor plasmid in PSI Mammalian Expression Vector (PROMEGA)
Procedure: as §1, §2

T2 sequence (P35346 whole entry): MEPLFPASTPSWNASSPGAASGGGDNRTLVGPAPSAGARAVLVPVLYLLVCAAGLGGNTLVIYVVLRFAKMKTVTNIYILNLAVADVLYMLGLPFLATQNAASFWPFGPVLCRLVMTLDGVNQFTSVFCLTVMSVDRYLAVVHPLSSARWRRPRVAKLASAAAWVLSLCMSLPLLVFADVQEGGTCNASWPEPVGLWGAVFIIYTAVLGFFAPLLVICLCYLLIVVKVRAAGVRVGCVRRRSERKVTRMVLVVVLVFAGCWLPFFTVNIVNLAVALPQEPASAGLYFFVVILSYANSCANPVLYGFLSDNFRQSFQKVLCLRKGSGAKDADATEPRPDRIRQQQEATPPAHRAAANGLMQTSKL

UII Eff. (UII receptor) | UII pEC50 (UII receptor) | agonist activity at the UII receptor (in words) (UII receptor) | EC50 (UII receptor) | SST5 Eff. (SST5 receptor) | EC50 (SST5 receptor) | melting point | SMILES | selectivity UII versus SST5 receptor (in words) (UII receptor) | stability of the pyrazoline core to oxidation by air [1]
31 | 5.4 | partial to full agonists |  |  |  |  | CCN(CC)CCC1C(c2ccccc2)=NN(C)C1c1ccc(Cl)cc1 (mixture of isomers) [III, anti/syn-5-(4-Chloro-phenyl)-4-(2-diethylamino-ethyl)-1-methyl-3-phenyl-4,5-dihydro-1H-pyrazole] | selective UII agonists | stable to oxidation by air during storage
35 |  | partial to full agonists | 1.58 µM | 41 | 6.31 µM |  | CCN(CC)CCC(=Cc1ccc(Cl)cc1)C(=O)c1ccccc1 (mixture of isomers) [Starting material] | activity at both the UII and SST5 receptors | 
92 |  | partial to full agonists | 5.01 µM | 60 | 10 µM |  | CCN(CC)CC[C@@H]1C(c2ccccc2)=Nc2ccccc2S[C@H]1c1ccc(Cl)cc1 (relative stereo) [V, anti-2-(4-Chloro-phenyl)-3-(2-diethylamino-ethyl)-4-phenyl-2,3-dihydro-benzo-[b]-[1,4]-thiazepine] | activity at both the UII and SST5 receptors | 
120 | 5.7 |  |  |  |  |  | CN(C)CCC1(c2ccc(Cl)cc2)Cc2ccccc2C(=O)O1 (stereo not drawn) [AC-7954, reference compound] |  | 
 |  |  |  |  |  | 90.5 to 92.3 °C | CCN(CC)CCc1c(-c2ccccc2)nc(-c2ccccc2)nc1-c1ccc(Cl)cc1 [IV, 4-(4-Chloro-phenyl)-5-(2-diethylamino-ethyl)-2,6-diphenyl-pyrimidine] |  | 
68 |  | partial to full agonists | 6.31 µM |  |  |  | CCN(CC)CCC1=C(c2ccccc2)NC(=O)N(C)C1c1ccc(Cl)cc1 (stereo not drawn) [I] | selective UII agonists | 
